Test results as given in a melting point compilation (Tetko et al.; mined from patent text by program, amines drawn as free bases though some values may be those of a salt).

melting point [°C]	SMILES
111 to 112	Cc1c(Br)csc1-c1nc(-c2c(F)cccc2Cl)nn1C
211	Cc1cc(-c2ccc(C(F)(F)F)cc2)nc(-c2cccc(-c3ccc(S(N)(=O)=O)s3)c2)c1
248 to 250	O=C(O)CCCNc1ccc2c(NC(=O)CC3CCCCC3)c(Cl)ccc2n1
148 to 150	O=C1Nc2ccccc2N(C(=O)N2CCCC(CCNCC3CCCC3)C2)c2ncccc21 (stereo not drawn)
109 to 111	N#Cc1cccc(C=O)c1[N+](=O)[O-]
159 to 161	CC(C)N1CC(CO)C(c2ccccc2)(c2ccccc2)C1=O (stereo not drawn)
114 to 115	Cc1c(C)n(CC2CC2C)c2c(OCc3ccc(F)cc3)nncc12 (stereo not drawn)
133 to 136	CC1CN(C(=O)OC(C)(C)C)CCC1(O)c1cc(C(F)(F)F)cc2ccoc12 (stereo not drawn)
224 to 226	O=C1CN(c2cccc(Cl)c2)NC(=O)N1
140 to 150	O=S(=O)(Nc1cccc(OCc2ncc3ccccc3n2)c1)C(F)(F)F
122 to 124	CON=Cc1cc(N2C(=O)C3=C(CCCC3)C2=O)c(Cl)cc1Cl
144 to 146	Cc1oc(-c2ccccc2)nc1C(=O)NN
108 to 111	O[C@@H](CNCCOc1ccc2oc(-c3noc(C(F)(F)F)n3)cc2c1)c1cccc(Cl)c1
190 to 193	CN(C)N1C(=O)C(Cc2ccncc2)(Cc2ccncc2)c2ccccc21
125 to 126	Cc1ccccc1CCc1c(C(C)C)nc(C(C)C)c(CO)c1-c1ccc(F)cc1
95.5 to 96.5	CCc1cn(C)cc(-c2cccc(C(F)(F)F)c2)c1=O
310 to 312	COc1cccc(C=C2CCc3c2nc2ccc(C(=O)O)cn2c3=O)c1
167 to 169	CCCCC1OC(=O)c2cc(NC(C)=O)c([N+](=O)[O-])cc21 (stereo not drawn)
123 to 125	CSc1ccc(CC(NC(=O)OCc2ccccc2)C(O)C#N)cc1 (stereo not drawn)
96 to 98	Cc1ccc2c(c1)C1(COc3cc4c(cc31)OCO4)C(=O)N2Cc1ccc(C(F)(F)F)o1 (stereo not drawn)
200 to 201	CCOC(=O)C(NC(C)=O)=C(c1ccc(F)cc1)c1ccc(F)cc1
171 to 173	O=C(NCc1ccc(F)cc1)c1ccnc(N2CCN(Cc3ccc(F)cc3F)C2=O)c1
154 to 157	COCCNC(=O)c1ccc(C(=O)NS(=O)(=O)c2ccc(CCNC(=O)CCC(C)C)cc2)cn1
122	CC(C)Oc1cc(CCC(=O)O)n(Cc2ccc(C(F)(F)F)cc2Cl)n1

melting point [°C]	SMILES
181 to 183	Nc1ncnc2c1ncn2[C@H]1C=C[C@@H](O)CC1 (racemic)
133 to 136	O=c1[nH]c2cc(Br)cc(Br)c2c(=O)n1Cc1ccccc1Cl
75 to 77	CCOC(=O)c1ccccc1CCc1ccc2oc(-c3nc(C(C)(C)C)cs3)cc2c1
209 to 211	COCCNS(=O)(=O)c1ccc(C(CC2CCCC2)C(=O)Nc2nc3ccc(OC)nc3s2)cc1 (stereo not drawn)
145 to 148	CCOC(=O)c1c(C)nc(O)nc1O
187 to 189	CC(=O)SCC(Cc1ccccc1)C(=O)Nc1ccc(C(=O)O)cc1 (stereo not drawn)
113 to 115	CC1=C(C(=O)OCCN(C)Cc2ccccc2)C(c2cccc([N+](=O)[O-])c2)C(P(=O)(OC(C)C)OC(C)C)=C(C)N1 (stereo not drawn)
79 to 81	CN(C(=O)OCc1ccccc1)c1ccc2c(c1)C(=O)C1(CC1)O2
215 to 217	CSc1nnc(-c2cc3c([nH]c2=O)CCN(Cc2ccccc2)C3)o1
125 to 126	COc1ccc(-c2cccc(C(=O)NO)c2C)cc1OCCCCCc1ccccc1
180	O=C(C#Cc1ccc(CN2CCCCC2)cc1)Nc1ccc(-c2ccc(Cl)cc2)cc1
146	CCOc1cc(OCC)c(C=[N+]([O-])C2CCCCC2)c(OCC)c1
197 to 198	CCOCCCN(C)Cc1ccc(NC(=O)C2=Cc3cc(-c4ccc(OCC)cc4)ccc3S(=O)(=O)CC2)cc1
228 to 230	CCOC(=O)c1nnc(N2CCN(c3ccc(N4CC(CNC(C)=O)OC4=O)cc3)CC2F)s1 (stereo not drawn)
109	N#Cc1ccc2c(c1)C(=O)CC2
93	Cc1ccc(CC2CCN(C(=O)c3nc4ccc(O)cc4[nH]3)CC2)cc1
226	CC(=O)Nc1ccn([C@@H]2CC[C@H](OC(C)=O)[C@@H](OC(C)=O)[C@H]2OC(C)=O)c(=O)n1 (racemic)
98 to 100	CS(=O)c1cc(Br)nc(Br)c1 (stereo not drawn)
230	CCN(CC1Cc2ccccc2N1CC)C(=N)N (stereo not drawn)
81 to 84	O=C(O)Cc1cc(Br)cc(Br)c1OCCc1ccccc1
168	CC(=O)Nc1ccc(-c2cc(C(=O)c3ccc(C)cc3)sc2N2CCOCC2)cc1
203 to 204	O=C(C=Cc1ccc(C(F)(F)F)cc1-c1nccs1)Nc1ccc2[nH]ccc2c1
122 to 123	COC(=O)c1nc(Cl)c(Cl)c(N)c1I
206 to 207	Cn1c(-c2ccccc2)nc(CN2CCN(c3ccc(O)cc3)CC2)cc1=O

melting point [°C]	SMILES
57 to 58	COc1ccccc1CC(=N)N1CCC(=O)C(C(c2ccccc2)c2ccccc2)C1 (stereo not drawn)
250 to 252	COc1ccc2c(c1)C=C(/C=C/C=C/C=C/C(=O)O)CO2
236 to 238	CCc1c(-c2ccc(OCc3ccccc3)cc2)c2c(C(=O)N(C)C)c(C(=O)O)c3cccc1n32
128 to 131	O=S1(=O)NCN(C2CC2)c2c1ccc(Br)c2Cl
130 to 147	CCn1c2ccccc2c2cc(OC)c(C(=O)O)cc21
155 to 156	CNC(c1ccc(OC)cc1)c1csc(S(N)(=O)=O)c1 (stereo not drawn)
160 to 161	CCOC(=O)CC(=O)Nc1c(-c2ccccc2)nn2ccccc12
123 to 126	COC(=O)/C=C/c1nc(C(=O)OC)ccc1OC
87 to 88	CCCc1c(OCCCSc2ccc(C(C)=O)c(OCCCC(=O)OCC)c2CCC)ccc(C(C)=O)c1O
84 to 86	Cc1cc(CCCCCOc2ccc(-c3nnco3)cc2)on1
121 to 122	CNC(=O)C(N)C(N)=O (stereo not drawn)
167 to 168	COCCOCc1c(CO)sc2c(=O)c(C(=O)NCc3ccc(Cl)cc3)cn(C)c12
69 to 70	COc1ccc(S(=O)(=O)N(COCC[Si](C)(C)C)c2ccccc2I)cc1
158 to 159	CC(C)(C)[Si](C)(C)OCC1(CO[Si](C)(C)C(C)(C)C)COc2cc(I)cc3c(=O)c(C(=O)NCc4ccc(Cl)cc4)cn1c23
147 to 150	CC(C)(C)NS(=O)(=O)c1ccccc1-c1ccccn1
112	Cc1ccnc(N2CCN(C(=O)CCCC3Cn4c(-c5cc(C)c(O)c(C)c5)c(C)c5cccc(c54)O3)CC2)c1 (stereo not drawn)
123 to 125	CSc1sc(C(=O)N2CCN(C)CC2)c2c1C(=O)CC(C)(C)C2
78 to 79	CC(C)(C)OC1CCCC2C(=O)CCCC12C (stereo not drawn)
> 108	O=c1[nH]c2ncncc2s1
105 to 107	CCN(CC)C(=O)c1c(Cl)cccc1C(=O)Nc1ccc(Cn2nc(C(F)(F)F)cc2C(F)(F)F)cc1C
184 to 186	NNC(=O)Nc1ccc(O)cc1
164 to 166	Cc1nc2nc(SCc3ccccc3)nn2c(C)c1Cl
109	N#Cc1cc([N+](=O)[O-])ccc1N1CCC(=O)CC1
217 to 218	O=C1CC(c2cccc(-n3cncn3)c2)=Nc2ccc(C#Cc3ccc(F)cc3)cc2N1

melting point [°C]	SMILES
112 to 115	O=C1C(c2c[nH]c3ccccc23)C(c2c[nH]c3ccccc23)C(=O)N1Cc1ccccc1 (stereo not drawn)
197 to 198	O=C1Nc2cccc(-c3cccc(C(F)(F)F)c3)c2/C1=C/c1ccc[nH]1
170	CC(C)OC(N)=C(C#N)C(=N)S
261 to 262	CC(C)C(C(=O)O)N(Cc1cccnc1)S(=O)(=O)c1ccc(-c2ccc(NC(=O)c3cc4ccccc4o3)cc2)cc1 (stereo not drawn)
149 to 150	C#CCc1c(C)nc2c(NCc3c(C)cccc3NC(=O)OC)cccn12
160 to 162	C=C(CN1C(=O)[C@H]2CCCN2C(=O)c2ccccc21)c1ccc(C(=O)Nc2ccccc2N)cc1
88 to 89	CCCCS(=O)(=O)Nc1ccccc1COc1cccc2cccnc12
100 to 102	CNC(=O)[C@H](CCCCNC(=O)OCc1ccccc1)NC(=O)OC(C)(C)C
82.5 to 84	CCCCc1cn(C)cc(-c2cccc(C(F)(F)F)c2)c1=O
130 to 140	c1c(N2CCNCC2)nc(N2CCC3(CC2)OCCO3)nc1N1CCC2(CC1)OCCO2
46	FC(F)(F)c1nnc(Sc2ccc(Cl)c(Cl)c2)s1
118 to 119	CCOC(=O)c1cc(C)n(-c2cccc(Br)c2)c1-c1ccccc1
237 to 242	COc1cc2cc3c(Nc4ccc(F)c(Cl)c4)c(C#N)cnc3cc2cc1OCCN1CCOCC1
123 to 125	CC(NC(=O)OC(C)(C)C)C1CCN(c2c(F)cc3c(=O)[nH]c(=O)n4c3c2CCC4C)C1 (stereo not drawn)
148 to 150	O=C(N[C@H]1CCCNC1=O)c1cccc(C(F)(F)F)c1
31 to 32	O=C1CCCCCCCCCCCCCCCCC1O (stereo not drawn)
130 to 131	Cc1ccccc1C1CCN(C(=O)CCC(=O)c2ccc3c(c2)CCN(C(=O)C(F)(F)F)CC3)CC1
260 to 261	CN1CC(=O)Nc2ccc(Br)cc2C1=O
56 to 61	CCOC(=O)c1c(C(F)(F)F)nc(C(F)(F)F)c(C(=O)OCC)c1Br
82 to 84	N#CC(=NOC(=O)OCC(Cl)(Cl)Cl)c1ccccc1
200 to 210	CC(=O)OC(OC(C)=O)c1cc(Br)c(C(OC(C)=O)OC(C)=O)cc1Br

SMILES	melting point [°C]
N#CCCN1C(=O)C(O)N=C(c2ccccc2Cl)c2cc(Cl)ccc21 (stereo not drawn)	198 to 202
c1ccc2nc(N3CCNCC3)cnc2c1	74 to 76
COc1c(Nc2ncc(Cl)c(Nc3ccccc3S(=O)(=O)N(C)C)n2)ccc2c1CCC(NCC(F)F)CC2 (stereo not drawn)	118
O=C(O)c1cccc(CN2CCC(c3cn(CCc4ccccn4)c4ccccc34)CC2)c1	141 to 142
CCCCC/C=C\C/C=C\C/C=C\C/C=C\CCCC(=O)N[C@@H](C)C(=O)N[C@H](CCC(=O)O)C(=O)O	90
